Source: patent publication US12030896B2, “PIKfyve inhibitors” (Mayo Foundation for Medical Education and Research, priority 2018, dated 2024)
Values joined by “and” are separate entries in the source; they are usually repeats but may differ in a detail not shown here. Identical values can stand only once.

Test: Pharmacokinetic study of Example 1 in mouse (IV, IP, PO)
Type: in vivo, Male C57BL/6 Mouse
Settings: for concentration at 0.25 h / concentration at 0.5 h / concentration at 1 h / concentration at 2 h / concentration at 4 h: male, C57BL/6, mouse, plasma, ip
Method: Species: Male C57BL/6 Mouse, fasted.
PK/PD testing of the compound was performed in mice, after IP, IV, or oral administration.

[1] = IP 30 mg/kg, individual mice M4-M6, 30 mg/kg
[2] = IV 5 mg/kg, individual mice M1-M3, 5 mg/kg
[3] = PO 30 mg/kg, individual mice M7-M9, 30 mg/kg

With `Cc1ccc(Nc2nc(N/N=C/c3c[nH]c4ccccc34)nc(N3CCOCC3)n2)cc1` [Example 1, (E)-4-(2-((1H-indol-3-yl)methylene)hydrazinyl)-6-morpholino-N-(p-tolyl)-1,3,5-triazin-2-amine] as the compound, how does the plasma concentration (IP 30 mg/kg, 0.250 h, individual mice M4-M6, 30 mg/kg) read?
Its plasma concentration is 299 ng/mL and 314 ng/mL.

And the plasma concentration (IP 30 mg/kg, 0.500 h, individual mice M4-M6, 30 mg/kg)?
Its plasma concentration is 430 ng/mL and 376 ng/mL.

What about the plasma concentration (IP 30 mg/kg, 1.00 h, individual mice M4-M6, 30 mg/kg) of the same compound?
Its plasma concentration is 636 ng/mL and 492 ng/mL.

And the plasma concentration (IP 30 mg/kg, 2.00 h, individual mice M4-M6, 30 mg/kg)?
The plasma concentration was 441 ng/mL and 523 ng/mL.

What about the plasma concentration (IP 30 mg/kg, 4.00 h, individual mice M4-M6, 30 mg/kg) of the same compound?
The plasma concentration was 232 ng/mL and 158 ng/mL.

What about the plasma concentration (IP 30 mg/kg, 6.00 h, individual mice M4-M6, 30 mg/kg) of the same compound?
Its plasma concentration is 115 ng/mL and 103 ng/mL.

And the plasma concentration (IP 30 mg/kg, 24.0 h, individual mice M4-M6, 30 mg/kg)?
The plasma concentration was 34.1 ng/mL and 40.7 ng/mL.

And the Tlast (IP 30 mg/kg, individual mice M4-M6)?
The Tlast was 24.0 h.

What about the AUC0-last [1] of the same compound?
Its AUC0-last is 3110 ng·h/mL and 2925 ng·h/mL.

What about the AUC(0-inf) [1] of the same compound?
The AUC(0-inf) was 3512 ng·h/mL and 3588 ng·h/mL.

What about the AUCExtra [1] of the same compound?
The AUCExtra was 18.0% and 11.5% and 18.5%.

And the AUMCExtra [1]?
The AUMCExtra was 54.7% and 41.4% and 56.7%.

And the Cmax [1]?
Its Cmax is 636 ng/mL and 523 ng/mL.

What about the MRT0-inf [1] of the same compound?
Its MRT0-inf is 9.91 h and 13.1 h.

What about the MRT0-last [1] of the same compound?
The MRT0-last was 6.56 h and 6.98 h.

What about the T1/2 [1] of the same compound?
Its T1/2 is 8.19 h and 11.3 h.

And the Tmax [1]?
Its Tmax is 2.00 h.

And the AUCExtra (IP 30 mg/kg, mean)?
The AUCExtra was 16.0%.

And the AUMCExtra (IP 30 mg/kg, mean)?
Its AUMCExtra is 50.9%.

And the Tlast (IP 30 mg/kg, mean)?
The Tlast was 24.0 h.

And the peak concentration (IP, single 30 mg/kg dose)?
The peak concentration was 534 ng/mL.

What about the plasma concentration (IV 5 mg/kg, 5 min, individual mice M1-M3, 5 mg/kg) of the same compound?
The plasma concentration was 1500 ng/mL and 2090 ng/mL.

What about the plasma concentration (IV 5 mg/kg, 0.250 h, individual mice M1-M3, 5 mg/kg) of the same compound?
The plasma concentration was 1270 ng/mL and 1530 ng/mL.

And the plasma concentration (IV 5 mg/kg, 0.500 h, individual mice M1-M3, 5 mg/kg)?
Its plasma concentration is 1060 ng/mL and 1130 ng/mL.

And the plasma concentration (IV 5 mg/kg, 1.00 h, individual mice M1-M3, 5 mg/kg)?
Its plasma concentration is 591 ng/mL and 678 ng/mL.

And the plasma concentration (IV 5 mg/kg, 2.00 h, individual mice M1-M3, 5 mg/kg)?
Its plasma concentration is 169 ng/mL and 204 ng/mL.

What about the plasma concentration (IV 5 mg/kg, 4.00 h, individual mice M1-M3, 5 mg/kg) of the same compound?
The plasma concentration was 16.7 ng/mL and 16.4 ng/mL.

And the plasma concentration (IV 5 mg/kg, 6.00 h, individual mice M1-M3, 5 mg/kg)?
Its plasma concentration is 4.04 ng/mL and 3.44 ng/mL.

What about the plasma concentration (IV 5 mg/kg, 24.0 h, individual mice M1-M3) of the same compound?
The plasma concentration was “BQL”.

What about the Tlast (IV 5 mg/kg, individual mice M1-M3) of the same compound?
Its Tlast is 6.00 h.

What about the AUC0-last [2] of the same compound?
The AUC0-last was 1539 ng·h/mL and 1820 ng·h/mL.

And the AUC(0-inf) [2]?
Its AUC(0-inf) is 1543 ng·h/mL and 1823 ng·h/mL.

What about the AUCExtra [2] of the same compound?
Its AUCExtra is 0.381% and 0.251% and 0.171%.

And the AUMCExtra [2]?
Its AUMCExtra is 2.79% and 1.96% and 1.39%.

And the C0 [2]?
The C0 was 1630 ng/mL and 2442 ng/mL.

What about the Cl [2] of the same compound?
Its Cl is 54.0 mL/min/kg and 45.7 mL/min/kg.

And the MRT0-inf [2]?
The MRT0-inf was 0.890 h and 0.847 h.

And the MRT0-last [2]?
Its MRT0-last is 0.875 h and 0.836 h.

And the T1/2 [2]?
The T1/2 was 0.665 h and 0.628 h.

What about the Vdss [2] of the same compound?
The Vdss was 2.89 L/kg and 2.32 L/kg.

And the AUCExtra (IV 5 mg/kg, mean)?
Its AUCExtra is 0.268%.

And the AUMCExtra (IV 5 mg/kg, mean)?
The AUMCExtra was 2.05%.

And the Tlast (IV 5 mg/kg, mean)?
The Tlast was 6.00 h.

And the plasma concentration (PO 30 mg/kg, 0.250 h, individual mice M7-M9, 30 mg/kg)?
Its plasma concentration is 59.6 ng/mL and 65.0 ng/mL.

What about the plasma concentration (PO 30 mg/kg, 0.500 h, individual mice M7-M9, 30 mg/kg) of the same compound?
Its plasma concentration is 84.2 ng/mL and 115 ng/mL.

And the plasma concentration (PO 30 mg/kg, 1.00 h, individual mice M7-M9, 30 mg/kg)?
Its plasma concentration is 145 ng/mL and 55.8 ng/mL and 75.3 ng/mL.

And the plasma concentration (PO 30 mg/kg, 2.00 h, individual mice M7-M9, 30 mg/kg)?
The plasma concentration was 58.6 ng/mL and 16.2 ng/mL and 16.7 ng/mL.

What about the plasma concentration (PO 30 mg/kg, 4.00 h, individual mice M7-M9, 30 mg/kg) of the same compound?
Its plasma concentration is 12.7 ng/mL and 5.98 ng/mL and 3.78 ng/mL.

What about the plasma concentration (PO 30 mg/kg, 6.00 h, individual mice M7-M9, 30 mg/kg) of the same compound?
The plasma concentration was 11.3 ng/mL and 7.80 ng/mL.

What about the plasma concentration (PO 30 mg/kg, 24.0 h, individual mice M7-M9) of the same compound?
Its plasma concentration is “BQL”.

What about the Tlast (PO 30 mg/kg, individual mice M7-M9) of the same compound?
The Tlast was 6.00 h.

What about the AUC0-last [3] of the same compound?
The AUC0-last was 291 ng·h/mL and 129 ng·h/mL and 145 ng·h/mL.

And the AUC(0-inf) [3]?
The AUC(0-inf) was 158 ng·h/mL and 162 ng·h/mL.

And the AUCExtra [3]?
Its AUCExtra is 6.68% and 18.1% and 10.7%.

What about the AUMCExtra [3] of the same compound?
Its AUMCExtra is 25.1% and 52.3% and 41.3%.

What about the Cmax [3] of the same compound?
The Cmax was 84.2 ng/mL and 115 ng/mL.

What about the MRT0-inf [3] of the same compound?
The MRT0-inf was 2.96 h and 2.14 h.

What about the MRT0-last [3] of the same compound?
Its MRT0-last is 1.72 h and 1.41 h.

What about the T1/2 [3] of the same compound?
Its T1/2 is 1.76 h and 1.55 h.

What about the AUCExtra (PO 30 mg/kg, mean) of the same compound?
The AUCExtra was 11.9%.

And the AUMCExtra (PO 30 mg/kg, mean)?
The AUMCExtra was 39.6%.

What about the Tlast (PO 30 mg/kg, mean) of the same compound?
The Tlast was 6.00 h.

And the concentration at 0.25 h (30 mg/kg, IP 30 mg/kg, 0.250 h, individual mice M4-M6)?
The concentration at 0.25 h was 242 ng/mL.

And the concentration at 0.25 h (30 mg/kg, IP 30 mg/kg, 0.250 h, mean)?
Its concentration at 0.25 h is 285 ng/mL.

What about the concentration at 0.5 h (30 mg/kg, IP 30 mg/kg, 0.500 h, individual mice M4-M6) of the same compound?
Its concentration at 0.5 h is 381 ng/mL.

And the concentration at 0.5 h (30 mg/kg, IP 30 mg/kg, 0.500 h, mean)?
The concentration at 0.5 h was 396 ng/mL.

What about the concentration at 1 h (30 mg/kg, IP 30 mg/kg, 1.00 h, individual mice M4-M6) of the same compound?
Its concentration at 1 h is 443 ng/mL.

What about the concentration at 1 h (30 mg/kg, IP 30 mg/kg, 1.00 h, mean) of the same compound?
Its concentration at 1 h is 524 ng/mL.

What about the concentration at 2 h (30 mg/kg, IP 30 mg/kg, 2.00 h, individual mice M4-M6) of the same compound?
The concentration at 2 h was 367 ng/mL.

And the concentration at 2 h (30 mg/kg, IP 30 mg/kg, 2.00 h, mean)?
Its concentration at 2 h is 444 ng/mL.

What about the concentration at 4 h (30 mg/kg, IP 30 mg/kg, 4.00 h, individual mice M4-M6) of the same compound?
The concentration at 4 h was 136 ng/mL.

And the concentration at 4 h (30 mg/kg, IP 30 mg/kg, 4.00 h, mean)?
Its concentration at 4 h is 175 ng/mL.
